Laboratory results taken from PubChem BioAssay AID330 (DTP/NCI, 2004).
“And” between values parts separate entries of the source, which are not always exact repeats. Equal values may be shown once. Toxic doses and inconclusive results are not listed.

System: P388 leukemia ip, CD2F1 mice, survival T/C
Assay: NCI In Vivo Anticancer Drug Screen. Data for tumor model P388 Leukemia (intraperitoneal) in CD2F1 (CDF1) mice
Conditions: endpoint: median survival time, higher = longer survival
How it was run: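 Mice carrying the transplanted tumor received test compound or vehicle. Survival was recorded in each group, and the value is the treated-group measurement divided by that of the vehicle-treated control group.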

[1] = dose: 50.0 mg/kg/injection, schedule: Q01DX005 (ip), vehicle: saline with Tween-80
[2] = dose: 100.0 mg/kg/injection, schedule: Q01DX005 (ip), vehicle: saline with Tween-80
[3] = dose: 200.0 mg/kg/injection, schedule: Q01DX005 (ip), vehicle: saline with Tween-80
[4] = dose: 50.0 mg/kg/injection, schedule: Q01DX009 (ip), vehicle: saline with Tween-80
[5] = dose: 100.0 mg/kg/injection, schedule: Q01DX009 (ip), vehicle: saline with Tween-80
[6] = dose: 200.0 mg/kg/injection, schedule: Q01DX009 (ip), vehicle: saline with Tween-80
[7] = dose: 50.0 mg/kg/injection, schedule: Q01DX009 (ip), vehicle: saline
[8] = dose: 100.0 mg/kg/injection, schedule: Q01DX009 (ip), vehicle: saline
[9] = dose: 200.0 mg/kg/injection, schedule: Q01DX009 (ip), vehicle: saline
[10] = dose: 100.0 mg/kg/injection, schedule: Q01DX009 (ip), vehicle: Klucel (hydroxypropylcellulose) (HPC)
[11] = dose: 200.0 mg/kg/injection, schedule: Q01DX009 (ip), vehicle: Klucel (hydroxypropylcellulose) (HPC)
[12] = dose: 400.0 mg/kg/injection, schedule: Q01DX009 (ip), vehicle: Klucel (hydroxypropylcellulose) (HPC)

With `COc1cccc2c1C(=O)c1c(O)c3c(c(O)c1C2=O)C[C@@](O)(C(=O)COC(=O)Cc1cccc2ccccc12)C[C@@H]3OC1CC(N)C(O)C(C)O1` (stereo partly drawn) the T/C (dose: 0.5 mg/kg/injection, schedule: Q01DX009 (ip), vehicle: other) was 164 % of control, the T/C (dose: 0.5 mg/kg/injection, schedule: Q01DX009 (ip), vehicle: saline with Tween-80) was 169 % of control and the T/C (dose: 0.5 mg/kg/injection, schedule: Q01DX009 (ip), vehicle: saline) was 107 % of control. The T/C (dose: 0.78 mg/kg/injection, schedule: Q01DX009 (ip), vehicle: other) was 157 % of control, the T/C (dose: 1.0 mg/kg/injection, schedule: Q01DX009 (ip), vehicle: other) was 156 % of control and the T/C (dose: 1.0 mg/kg/injection, schedule: Q01DX009 (ip), vehicle: saline with Tween-80) was 183 % of control. For the same molecule, the T/C (dose: 1.0 mg/kg/injection, schedule: Q01DX009 (ip), vehicle: saline) was 121 % of control, the T/C (dose: 1.56 mg/kg/injection, schedule: Q01DX009 (ip), vehicle: other) was 190 % of control and the T/C (dose: 2.0 mg/kg/injection, schedule: Q01DX009 (ip), vehicle: other) was 170 % of control. For the same molecule, the T/C (dose: 2.0 mg/kg/injection, schedule: Q01DX009 (ip), vehicle: saline with Tween-80) was 231 % of control, the T/C (dose: 2.0 mg/kg/injection, schedule: Q01DX009 (ip), vehicle: saline) was 124 % of control and the T/C (dose: 3.13 mg/kg/injection, schedule: Q01DX009 (ip), vehicle: other) was 245 % of control. For the same molecule, the T/C (dose: 4.0 mg/kg/injection, schedule: Q01DX009 (ip), vehicle: other) was 113 % of control, the T/C (dose: 4.0 mg/kg/injection, schedule: Q01DX009 (ip), vehicle: saline with Tween-80) was 161 % of control and 277 % of control and the T/C (dose: 4.0 mg/kg/injection, schedule: Q01DX009 (ip), vehicle: saline) was 122 % of control. For the same molecule, the T/C (dose: 8.0 mg/kg/injection, schedule: Q01DX009 (ip), vehicle: saline with Tween-80) was 100 % of control and the T/C (dose: 16.0 mg/kg/injection, schedule: Q01DX009 (ip), vehicle: saline with Tween-80) was 99 % of control.
For `CC1(C)O[P+]2(OC(C)(C)c3ccccc32)c2ccccc21`, the T/C (dose: 100.0 mg/kg/injection, schedule: Q04DX002 (ip), vehicle: Klucel (hydroxypropylcellulose) (HPC)) was 96 % of control, the T/C (dose: 200.0 mg/kg/injection, schedule: Q04DX002 (ip), vehicle: Klucel (hydroxypropylcellulose) (HPC)) was 97 % of control and the T/C (dose: 400.0 mg/kg/injection, schedule: Q04DX002 (ip), vehicle: Klucel (hydroxypropylcellulose) (HPC)) was 96 % of control.
In the case of `CC1(c2ccccc2)COC(=O)O/C1=N/OCc1ccccc1` (stereo not drawn), the T/C [1] is reported as 100 % of control, the T/C [2] is reported as 107 % of control and the T/C [3] is reported as 99 % of control.
`O=C1C=CC2(C=C1)CCN=C(c1cc3c(cc1Br)OCO3)O2` was tested, and the T/C (dose: 25.0 mg/kg/injection, schedule: Q04DX002 (ip), vehicle: saline) was 102 % of control, the T/C (dose: 50.0 mg/kg/injection, schedule: Q04DX002 (ip), vehicle: saline) was 103 % of control and the T/C (dose: 100.0 mg/kg/injection, schedule: Q04DX002 (ip), vehicle: saline with Tween-80) was 108 % of control. The T/C (dose: 100.0 mg/kg/injection, schedule: Q04DX002 (ip), vehicle: saline) was 100 % of control.
For `CCCC(N)C(=O)NC(Cc1c[nH]c2ccccc12)C(=O)O` (stereo not drawn), the T/C [1] was 101 % of control, the T/C [2] was 102 % of control and the T/C [3] was 103 % of control.
With `NC(=O)CC(NC(c1ccccc1)(c1ccccc1)c1ccccc1)C(=O)ON1C(=O)CCC1=O` (stereo not drawn) the T/C (dose: 25.0 mg/kg/injection, schedule: Q01DX001 (ip), vehicle: saline with Tween-80) was 104 % of control, the T/C (dose: 50.0 mg/kg/injection, schedule: Q01DX001 (ip), vehicle: saline with Tween-80) was 100 % of control and the T/C (dose: 100.0 mg/kg/injection, schedule: Q01DX001 (ip), vehicle: saline with Tween-80) was 100 % of control.
For `Cc1cc(N(C)C)c2ccc(N(C)C)cc2n1`, the T/C (dose: 12.5 mg/kg/injection, schedule: Q01DX005 (ip), vehicle: saline with Tween-80) was 97 % of control, the T/C (dose: 25.0 mg/kg/injection, schedule: Q01DX005 (ip), vehicle: saline with Tween-80) was 98 % of control and the T/C [1] was 99 % of control and 104 % of control.
`COC1OC2COC(c3ccc(Cl)cc3)OC2C2OC12` (stereo not drawn) was tested, and the T/C (dose: 7.5 mg/kg/injection, schedule: Q04DX002 (ip), vehicle: saline with Tween-80) was 102 % of control, the T/C (dose: 15.0 mg/kg/injection, schedule: Q04DX002 (ip), vehicle: saline with Tween-80) was 101 % of control and the T/C (dose: 30.0 mg/kg/injection, schedule: Q04DX002 (ip), vehicle: saline with Tween-80) was 102 % of control.
`COc1ccc(/C=C2\C(=O)N(Cc3ccco3)SC2=S)c(OC)c1OC` was tested, and the T/C [4] was 90 % of control, the T/C [5] was 90 % of control and the T/C [6] was 106 % of control.
`O=C(O)c1c[nH]c2cc(OCCOc3ccccc3)ccc2c1=O` was tested, and the T/C [7] was 107 % of control, the T/C [8] was 107 % of control and the T/C [9] was 100 % of control.
For `C/C=C/C(=O)OC(C)CCC(CC)CCCC` (stereo not drawn), the T/C [10] was 100 % of control, the T/C [11] was 96 % of control and the T/C [12] was 91 % of control.
For `CC(C)(S)CN`, the T/C (dose: 100.0 mg/kg/injection, schedule: Q01DX001 (ip), vehicle: saline) was 104 % of control, the T/C (dose: 200.0 mg/kg/injection, schedule: Q01DX001 (ip), vehicle: saline) was 108 % of control and the T/C (dose: 400.0 mg/kg/injection, schedule: Q01DX001 (ip), vehicle: saline) was 103 % of control.
With `CCOC(=O)c1c(-c2ccccc2)noc1N` the T/C (dose: 25.0 mg/kg/injection, schedule: Q01DX005 (ip), vehicle: saline) was 100 % of control, the T/C (dose: 50.0 mg/kg/injection, schedule: Q01DX005 (ip), vehicle: saline) was 100 % of control and the T/C (dose: 100.0 mg/kg/injection, schedule: Q01DX005 (ip), vehicle: saline) was 98 % of control. The T/C (dose: 200.0 mg/kg/injection, schedule: Q01DX005 (ip), vehicle: saline) was 100 % of control and the T/C (dose: 400.0 mg/kg/injection, schedule: Q01DX005 (ip), vehicle: saline) was 104 % of control.
`CN(C)c1ccc(/C=[N+](\C)[O-])cc1` was tested, and the T/C [7] was 91 % of control, the T/C [8] was 98 % of control and the T/C [9] was 95 % of control.
For `NC(=O)c1cc(C(N)=O)n(C2OC(CO)C(O)C2O)n1` (stereo not drawn), the T/C (dose: 30.0 mg/kg/injection, schedule: Q04DX002 (ip), vehicle: saline) was 98 % of control and 99 % of control, the T/C (dose: 60.0 mg/kg/injection, schedule: Q04DX002 (ip), vehicle: saline) was 104 % of control and 93 % of control and the T/C (dose: 120.0 mg/kg/injection, schedule: Q04DX002 (ip), vehicle: saline) was 98 % of control and 93 % of control.
With `CCC1(/C=N/NC(N)=O)NC(=O)NC1=O` (stereo not drawn) the T/C [1] was 93 % of control, the T/C [2] was 96 % of control and the T/C [3] was 88 % of control.
With `Cc1ccc2c(c1)C(=O)CC=C(C(=O)O)N2` the T/C [10] was 98 % of control, the T/C [11] was 104 % of control and the T/C [12] was 111 % of control. The T/C (dose: 600.0 mg/kg/injection, schedule: Q01DX009 (ip), vehicle: Klucel (hydroxypropylcellulose) (HPC)) was 89 % of control.
`CCc1ccc2c(c1)N(CCCN(CCCl)CCCl)c1ccccc1S2` was tested, and the T/C (dose: 0.78 mg/kg/injection, schedule: Q01DX009 (ip), vehicle: saline with Tween-80) was 106 % of control and the T/C (dose: 1.56 mg/kg/injection, schedule: Q01DX009 (ip), vehicle: saline with Tween-80) was 101 % of control and 115 % of control.
`O=C(c1ccccc1)C1(c2ccccc2)CC1` was tested, and the T/C [4] was 104 % of control, the T/C [5] was 104 % of control and the T/C [6] was 104 % of control. The T/C (dose: 400.0 mg/kg/injection, schedule: Q01DX009 (ip), vehicle: saline with Tween-80) was 99 % of control.
With `CSc1cccc(NC(=O)Nc2nc3c(C)cccc3s2)c1` the T/C (dose: 50.0 mg/kg/injection, schedule: Q01DX005 (ip), vehicle: Klucel (hydroxypropylcellulose) (HPC)) was 96 % of control, the T/C (dose: 100.0 mg/kg/injection, schedule: Q01DX005 (ip), vehicle: Klucel (hydroxypropylcellulose) (HPC)) was 95 % of control and the T/C (dose: 200.0 mg/kg/injection, schedule: Q01DX005 (ip), vehicle: Klucel (hydroxypropylcellulose) (HPC)) was 90 % of control.
For `CSc1nc2c(nc(N)n2C2OC(COC(C)=O)C(OC(C)=O)C(OC(C)=O)C2OC(C)=O)c(=O)n1C` (stereo not drawn), the T/C (dose: 120.0 mg/kg/injection, schedule: Q01DX005 (ip), vehicle: saline with Tween-80) was 92 % of control and the T/C (dose: 240.0 mg/kg/injection, schedule: Q01DX005 (ip), vehicle: saline with Tween-80) was 96 % of control.
For `Cc1cc(Cl)ccc1N=Cc1ccc(C=Nc2ccc(Cl)cc2C)cc1`, the T/C (dose: 12.5 mg/kg/injection, schedule: Q01DX009 (ip), vehicle: Klucel (hydroxypropylcellulose) (HPC)) was 94 % of control, the T/C (dose: 25.0 mg/kg/injection, schedule: Q01DX009 (ip), vehicle: Klucel (hydroxypropylcellulose) (HPC)) was 95 % of control and the T/C (dose: 50.0 mg/kg/injection, schedule: Q01DX009 (ip), vehicle: Klucel (hydroxypropylcellulose) (HPC)) was 99 % of control.
